Source: US5250562A, “Stilbene derivatives” (Hoffmann-La Roche Inc., priority 1988, dated 1993)

Tested on: chemically induced mammary tumours
Experiment: activity against chemically induced (oral administration of dimethylbenzanthracene) mammary tumours in rats
Assay type: in vivo
Settings: for Increase or decrease in the average number of tumours per rat: control group +242; for Increase or decrease in the average tumour volume per rat in mm^3: control group +714
Source text: The biological activity of the compounds in accordance with the invention can be determined e.g. using the test procedures described in German Offenlegungsschrift 3 715 955.

SMILES: C/C(=C\c1ccc(OCCN2CCOCC2)cc1)c1ccc2c(c1)C(C)(C)CCC2(C)C [4-[2-[p-[(E)-2-(5,6,7,8-tetrahydro-5,5,8,8-tetramethyl-2-naphthyl)propenyl]phenoxy]ethyl]morpholine]
- Rats with tumours (50 mg/kg/day p.o.): 100 % of controls
- Increase or decrease in the average number of tumours per rat (50 mg/kg/day p.o.): +91
- Increase or decrease in the average tumour volume per rat in mm^3 (50 mg/kg/day p.o.): +550 mm^3
- Rats with tumours (100 mg/kg/day p.o.): 50 % of controls
- Increase or decrease in the average number of tumours per rat (100 mg/kg/day p.o.): -73
- Increase or decrease in the average tumour volume per rat in mm^3 (100 mg/kg/day p.o.): -77 mm^3
- Rats with tumours (200 mg/kg/day p.o.): 10 % of controls
- Increase or decrease in the average number of tumours per rat (200 mg/kg/day p.o.): -96
- Increase or decrease in the average tumour volume per rat in mm^3 (200 mg/kg/day p.o.): -99 mm^3
